Source: US11759480B2, “Compositions and methods for CAR T cell therapy” (ENDOCYTE, INC., priority 2017, dated 2023)
Read-outs that look alike come from different tables or passages of the source.

Key:
[1] = system: MDA-MB-231; assay: EC17 dependent anti-tumor activity, MDA-MB-231 xenograft (Example 26); assay type: in vivo, NSG mice; conditions: 500 nmoles/kg once per week, 5 million CAR-T
Excerpt: Immunodeficient NSG mice (Jackson Laboratory) were used to show the efficacy of CAR T cell anti-tumor activity with a single dose of EC17 per week. Two folate receptor expressing cancer cell lines were used to establish subcutaneous solid tumor xenografts: MDA-MB-231 has high folate receptor expression, while OV90 has low folate receptor expression. When tumor volume of around 100-250 mm^3 was reached, mice were divided into two groups. Mice in the “EC17 500 nmol/kg” group (nmol/kg is equivalent to nmoles/kg as used in this patent application for the bridge) were injected with 500 nmoles/kg of body weight of EC17, while mice in the “no EC17” group were not injected with EC17. Four hours later, mice in both groups were administered 5 million anti-FITC CAR-T cells. After initial administration of EC17 and CAR-T cells, only mice in the “EC17 500 nmol/kg” group were injected (i.v.) with 500 nmoles/kg of EC17 once per week. Anti-tumor efficacy was monitored by tumor volume.

[2] = system: MDA-MB-231 solid tumor xenografts; assay: Effect of FITC-Folate dose on anti-FITC CAR T cell response (Example 10); assay type: in vivo, NSG mice
Excerpt: Five experimental groups: (1) anti-FITC CAR T cell with PBS; (2) anti-FITC CAR T cell with FITC-Folate (5 nmoles/kg); (3) anti-FITC CAR T cell with FITC-Folate (50 nmoles/kg); (4) anti-FITC CAR T cell with FITC-Folate (500 nmoles/kg); (5) anti-FITC CAR T cell with FITC-Folate (2500 nmoles/kg) were designed to identify the relationship between anti-FITC CAR T cell response and the dose of FITC-ligands. MDA-MB-231 cells were subcutaneously injected into the shoulders of NSG mice (Jackson Laboratory) to establish solid tumor xenografts. When tumor volume reached around 50-100 mm^3, anti-FITC CAR T cells (15×10^6 cells) and different doses of FITC-Folate were intravenously introduced into the mice.
To monitor anti-FITC CAR T cell activation with the different doses of FITC-Folate, IFN-gamma concentration was measured in mouse blood by a bead-based immunoassay (Legendplex kit from Biolegend). Tumor volume was also measured. General toxicity for each treatment group was monitored by measuring weight loss.

[3] = system: MDA-MB-231 solid tumor xenografts; assay type: in vivo
Method: MDA-MB-231 cells were subcutaneously injected into the shoulders of NSG mice (Jackson Laboratory) to establish solid tumor xenografts. When tumor volume reached around 50-100 mm^3, anti-FITC CAR T cells (15×10^6 cells) were intravenously introduced into tumor-bearing mice. Twenty NSG mice were divided into four study groups (5 animals in each group). The first group was treated with anti-FITC CAR T cells with phosphate-buffered saline (PBS) as a negative control. The second, third, and fourth groups were treated with anti-FITC CAR T cells with FITC-Folate (500 nmole/kg) every other day. Once a significant toxicity (e.g. serious loss of body weight) was detected, these groups were treated with either: continued FITC-Folate administration (second group); discontinuation of FITC-Folate administration until the mice recovered (third group); or a mixture of 100-fold excess of EC0923 (i.e. free folate) and FITC-Folate until the mice recovered (fourth group). The body weight was measured regularly to monitor toxicity. In addition, the blood concentration of interferon (IFN)-gamma for each treatment group was measured to monitor the degree of anti-FITC CAR T activation. Finally, tumor volume was measured to identify anti-tumor efficacy in each treatment group.

[4] = system: FR+ HEK-FRa xenografts; assay: FITC-CAR-T proliferation in HEK-FRa s.c. xenograft model (Example 37); assay type: in vivo, mice; conditions: 500 nmol/kg three times per week
Method: The evaluation of FITC-CAR-T proliferation and related toxicity in both naïve mice and mice bearing FR+ tumor xenografts was tested. To evaluate whether FITC-CAR-T proliferation in vivo is dependent on the co-existence of the bridge (e.g. EC17) and the tumor antigen (e.g. folate receptor), FITC-CAR-T proliferation in vivo was compared in naïve mice and mice bearing FR+ tumor xenografts, either with or without EC17. 5-8 million CAR-T cells (as indicated in FIGS. 42 and 43) were administered (i.v.) into naïve mice without tumors and mice bearing FR+ tumor xenografts (80-200 mm3). 500 nmol/kg EC17 was dosed 4 hours before and three times per week post CAR-T administration, if desired. Mice were monitored for body weight changes and CAR-T cell count in blood circulation; some mice were also euthanized weekly to evaluate organs. […] CAR-T cell count in blood samples was also compared to evaluate CAR-T proliferation. […] Since the enlargement of spleen size is another indicator for CAR-T proliferation in vivo, spleen size was also measured as shown in FIG. 43B.
For FIG. 42, the MDA-MB-231 s.c. model was used. For FIG. 43A, the HEK-FRa s.c. xenograft model was used. For FIG. 43B, the MDA-MB-231 s.c. model was used.

[5] = system: MDA-MB-231 cells; assay: Control of CRS with bridge molecules in vivo (Example 43); design: species or system NSG mice
Method: Mice were maintained on folic acid-deficient diet (TD.95247, Envigo) in order to reduce the level of folic acid in mice to a physiological levels found in humans. Tumors were measured every other day with calipers, and tumor volume was calculated according to equation: Tumor volume=½(L×W^2) where L is the longest axis of the tumor and W is the axis perpendicular to L. Mouse blood was also collected to measure cytokine levels (e.g. IL-2, IL-6, IFNγ, and TNFα) using LEGENDplex bead-based immunoassay (Biolegend, CA) and systemic toxicity was monitored by measuring body weight loss. All animal care and use followed by National Institutes of Health (NIH) guidelines and all experimental protocols were approved by the Purdue Animal Care and Use Committee.

With Nc1nc2ncc(CNc3ccc(C(=O)NC(CCC(=O)NCCNC(=S)Nc4ccc(-c5c6ccc(=O)cc-6oc6cc(O)ccc56)c(C(=O)O)c4)C(=O)O)cc3)nc2c(=O)[nH]1 (stereo not shown) [EC17, FITC-Folate] as the compound, how does the anti-tumor activity [1] read?
The anti-tumor activity was “eliminate MDA-MB-231 tumors”.

And the “concentration of IFN-gamma versus FITC-Folate dose” value ([2]; 5, 50, 500, 2500 nmoles/kg, 15×10^6 CAR T cells)?
The value was “bell-shaped dose-response curve”.

And the “dose with maximum toxicity (lowest survival rate) and highest anti-tumor efficacy” value ([2]; 15×10^6 CAR T cells)?
Its value is 500 nmol/kg.

What about the “anti-tumor efficacy of CAR T cells” value ([2]; FITC-Folate 2500 nmole/kg) of the same compound?
Its value is “started to decrease”.

What about the IFN-gamma blood concentration ([3]; break group) of the same compound?
The IFN-gamma blood concentration was “decreased”.

What about the complete response ([3]; break group) of the same compound?
The complete response was 100%.

And the IFN-gamma blood concentration ([3]; continued dose group)?
Its IFN-gamma blood concentration is “a significant amount IFN-gamma was detected”.

And the “survival of mice at the first week of treatment” value ([3]; continued dose group)?
Its value is 40%.

What about the tumor response ([3]; continued dose group) of the same compound?
Its tumor response is “delay of tumor growth”.

And the FITC-CAR-T proliferation [4]?
The FITC-CAR-T proliferation was “rapid proliferation”.

What about the tumor outcome ([5]; 500 nmole/kg, days 4 and 6 omitted) of the same compound?
The tumor outcome was “complete tumor eradication”.

What about the “mice requiring euthanasia by day 8” value ([5]; 15×10^6 CAR T cells, continuous alternate day 500 nmole/kg) of the same compound?
The value was “three of the mice”.

And the body weight ([5]; continuous dosing of 500 nmole/kg, 15×10^6 CAR T cells)?
Its body weight is “dramatic and continuous weight loss”.

And the therapeutic benefit ([5]; continuous dosing schedule)?
Its therapeutic benefit is “little therapeutic benefit”.

And the tumor outcome ([5]; continuously treated)?
The tumor outcome was “rapid increase in tumor growth”.

What about the “time to resolution of transient weight loss” value ([5]; escalation 0.5 to 500 nmole/kg, 15×10^6 CAR T cells) of the same compound?
Its value is no more than 4 days.

What about the tumor outcome ([5]; gradual dose escalation regimen) of the same compound?
The tumor outcome was “complete cures”.

And the tumor outcome ([5]; interrupted dosing)?
The tumor outcome was “complete remission of their tumors”.

What about the body weight ([5]; interrupted dosing (days 4 and 6 omitted)) of the same compound?
The body weight was “only a moderate weight loss from which they rapidly recovered”.

What about the tumor outcome ([5]; one dose per week) of the same compound?
Its tumor outcome is “complete cures”.

And the body weight ([5]; single injection per week)?
Its body weight is “no weight loss”.

And the body weight ([5]; three doses per week, 5×10^6 CAR T cells)?
The body weight was “significant animal weight loss”.

And the body weight loss ([5]; tumor-bearing mice, within 4 days, 5×10^6 CAR T cells + 500 nmoles/kg)?
Its body weight loss is roughly 8%.

What about the body weight ([5]; tumor-free mice) of the same compound?
The body weight was “no weight loss was detected”.

And the toxicity ([5]; two doses per week)?
The toxicity was “less toxicity”.
